Experimental data taken from patent US20080039328A1, “Post Harvest Control of Genetically Modified Crop Growth Employing D-Amino Acid Compounds” (BASF PLANT SCIENCE GMBH, priority 2004, published 2008).
“Also recorded” adds a separate entry of the source.

Key:
[1] = test system: non-transgenic Brassica napus plants; assay: Greenhouse spraying of mixed plantlets on soil with D-isoleucine; assay type: in vivo; conditions: sprayed, 10 mM, 20 mM, 30 mM in isotonic salt solution, pH 7.0, soil, green-house
Procedure: (§1) Transgenic Arabidopsis, Brassica napus, and Zea mays plants are generated as described above using either construct I (SEQ ID NO: 15) or construct II (SEQ ID NO: 16) for Agrobacterium mediated transformation. Transgenic plants are selected using the negative selection marker property of the D-amino acid oxidase on medium comprising 0.3, 3 or 30 mM D-alanine (or D-serine). Resulting transgenic plants are selfed to obtain homozygous plants. Homozygous plants are propagated over 2 to 3 generations to ensure stability of the transgenic insertion.
(§2) Seeds of transgenic plants are mixed with seeds of the corresponding non-transgenic line (used for transformation). Various proportions of transgenic versus non-transgenic seeds are used (1:1, 1:10, 1:100).
(§3) Seeds are sown on standard soil under green-house conditions. After germination, developing plantlets were sprayed at various developmental steps with preparations of D-isoleucine (final concentration of 10 mM, 20 mM, 30 mM, respectively in isotonic salt solution, pH 7.0).

[2] = test system: non-transgenic Zea mays plants; assay: as above; assay type: in vivo; conditions: sprayed, 10 mM, 20 mM, 30 mM in isotonic salt solution, pH 7.0, soil, green-house
Procedure: as §1, §2, §3

[3] = test system: non-transgenic Arabidopsis plants; assay: as above; assay type: in vivo; conditions: sprayed, 10 mM, 20 mM, 30 mM in isotonic salt solution, pH 7.0, soil, green-house
Procedure: as §1, §2, §3

[4] = test system: Transgenic Brassica napus plants (DAAO from Rhodotorula gracilis); assay: as above; assay type: in vivo; conditions: sprayed, 10 mM, 20 mM, 30 mM in isotonic salt solution, pH 7.0, soil, green-house
Procedure: as §1, §2, §3

[5] = test system: Transgenic Arabidopsis plants (DAAO from Rhodotorula gracilis); assay: as above; assay type: in vivo; conditions: sprayed, 10 mM, 20 mM, 30 mM in isotonic salt solution, pH 7.0, soil, green-house
Procedure: as §1, §2, §3

[6] = test system: Transgenic Zea mays plants (DAAO from Rhodotorula gracilis); assay: as above; assay type: in vivo; conditions: sprayed, 10 mM, 20 mM, 30 mM in isotonic salt solution, pH 7.0, soil, green-house
Procedure: as §1, §2, §3

[7] = test system: wild-type Arabidopsis thaliana; assay: Growth of wild-type A. thaliana plantlets on medium with D-amino acids; assay type: in vivo
Procedure: Wild type Arabidopsis thaliana plantlets were grown on half-concentrated Murashige-Skoog medium (0.5% (wt/vol) sucrose, 0.8% (wt/vol) agar) supplemented with the indicated D-amino acid at either 3 mM (Panel A) or 30 mM (Panel B).
(§4) FIG. 4 D-amino acid dose responses of dao1 transgenic and wild-type A. thaliana. (a-d) Growth of dao1 transgenic line 3:7 (white), 10:7 (light gray), 13:4 (gray) and wild-type (black) plants, in fresh weight per plant, on media containing various concentrations of D-serine, D-alanine, D-isoleucine and D-valine in half-strength MS with 0.5% (wt/vol) sucrose and 0.8% (wt/vol) agar. Different concentration ranges were used for different ID-amino acids. The plants were grown for 10 d after germination under 16 h photoperiods at 24° C.; n=10±s.e.m., except for plants grown on D-isoleucine, where smaller Petri dishes were used, (n=6±s.e.m.).
(§5) T1 seeds of transgenic Arabidopsis plants were surface-sterilized and sown in Petri plates that were sealed with gas-permeable tape. The growth medium was half strength MS19 with 0.5% (wt/vol) sucrose and 0.8% (wt/vol) agar, plus 3 mM D-alanine, 3 mM D-serine or 50 μg/ml kanamycin as the selective agent. Plants were grown for 5 d after germination with a 16 h photoperiod at 24° C. To evaluate the selection efficiency on different substrates, 2,074, 1,914 and 1,810 T1 seeds were sown on D-alanine-, D-serine- and kanamycin-selective plates, respectively, and the number of surviving seedlings was counted (44, 32 and 43, respectively).

DAAO = target: T1, DAAO (Rhodotorula toruloides, UniProt P80324); assay: DAAO incubation of cell-free plant extracts, keto acid production by HPLC; assay type: biochemical, Rhodotorula gracilis; conditions: cell-free extracts from dao1 transgenic line 10:7
T1 construct: expressed in transfected cells; host or cells: Arabidopsis thaliana (Col-0), dao1 transgenic line 10:7, transformed with pPCV702:dao1 (CaMV 35S); crude soluble protein extract
T1 sequence (P80324 25-368): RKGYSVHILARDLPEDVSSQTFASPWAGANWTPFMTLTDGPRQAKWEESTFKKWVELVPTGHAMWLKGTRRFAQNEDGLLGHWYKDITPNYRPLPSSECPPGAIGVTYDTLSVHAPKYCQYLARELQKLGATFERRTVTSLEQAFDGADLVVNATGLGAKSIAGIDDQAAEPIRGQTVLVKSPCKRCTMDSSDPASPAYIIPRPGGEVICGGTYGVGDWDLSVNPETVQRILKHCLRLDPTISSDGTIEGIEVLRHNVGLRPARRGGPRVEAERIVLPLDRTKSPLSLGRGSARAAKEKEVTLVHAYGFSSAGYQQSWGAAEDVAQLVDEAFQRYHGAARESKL
Procedure: Soluble proteins were extracted by shaking 0.1 g samples of plant material that had been finely pulverized in a 1.5 ml Eppendorf tube in 1 ml of 0.1 M potassium phosphate buffer, pH 8. DAAO activity was then assayed as follows. Reaction mixtures were prepared containing 2,120 μl of 0.1 M potassium phosphate buffer, pH 8, 80 μl of crude protein extract and 100 μl of 0.3 M D-alanine. The samples were incubated for 2 h at 30° C. The enzyme activity was then assessed, by measuring the increase in absorbance at 220 nm (E=1.090 M^−1 cm^−1) associated with the conversion of D-alanine to pyruvate, after transferring the test tubes to boiling water for […] to stop the reaction. In control reactions, D-alanine was added immediately before boiling. One unit of DAAO activity is defined as the turnover of one micromole of substrate per minute, and activity was expressed per gram plant biomass (fresh weight). The breakdown of D-isoleucine and D-valine in DAAO incubations, and the associated production of 3-methyl-2-oxopentanoate and 3-methyl-2-oxobutanoate, were analyzed by high-performance liquid chromatography. In other respects the reactions were carried out as described above.
Presumably endogenous transaminase may be specific for the L-enantiomer, so the corresponding D-enantiomer is not metabolized in wildtype plants, but only in plants expressing DAAO. […]

[8] = test system: dao1 transgenic A. thaliana; assay: Growth of dao1 (DAAO) transgenic A. thaliana on medium with D-amino acids; assay type: in vivo, Arabidopsis thaliana
Procedure: as §4, §5
The T-DNA contained both 35S:dao1 and pNos:nptII, allowing D-amino acid and kanamycin selection to be compared in the same lot of seeds.
Therefore, plants containing the construct were tested as described above on two sets of media, one containing D-isoleucine and the other containing D-valine at various concentrations, to assess whether DAAO could also be used as a counter-selection marker. Unambiguous counter-selection selection was achieved when seeds were sown on either D-isoleucine or D-valine at concentrations greater than 10 mM (FIG. 4 c,d).

[9] = various concentrations in half-strength MS, 10 d after germination

CC[C@@H](C)[C@@H](N)C(=O)O [D-isoleucine]
Effect of the treatment on non-transgenic plants [1]: unaffected | Effect of the treatment on non-transgenic plants [2]: unaffected | Effect of the treatment on non-transgenic plants [3]: unaffected | Transgenic plants able to reach maturity [4]: None | Transgenic plants able to reach maturity [5]: None | Transgenic plants able to reach maturity [6]: None | Effect on plant growth (FIG. 3) ([7]; 3 mM or 30 mM in half-concentrated Murashige-Skoog medium, wild type plantlets): no significant effects | Response of wild-type plants (compared with DAAO lines) ([7]; in vivo): grew well, with no sign of toxicity | Effect on wild-type plantlets (FIG. 2) ([7]; treated with 30 mM): no severe damage | Growth of wild-type plants (FIG. 4) [7, 9]: not toxic; also recorded: minor effects; also recorded: not the wild-type plants | Increase in production of 3-methyl-2-oxopentanoate compared to extracts of wild-type plants (DAAO): 15 fold | Response of thirteen individual lines expressing DAAO ([8]; in vivo): effectively killed | Effect on transgenic plantlets comprising DAAO gene (FIG. 2) ([8]; treated with 30 mM): toxic effect | Growth of plants expressing DAAO (FIG. 4) [8, 9]: strong negative influence on the growth; also recorded: inhibit growth
